In PMC12455130, “Multifunctional molecular agent for tau-targeted combinational therapy of Alzheimer’s disease” (The Journal of Biological Chemistry, 2025):

Legend:
Format in all cases: biochemical
R3 fibrils [1] = target: T1, R3 fibrils (Homo sapiens, UniProt P10636); experiment: TEM of Cu2+-promoted R3 fibrils; settings: R3 15 μM, Cu2+ 3.8 μM, heparin 3.8 μM, compound 10 μM, Hepes pH 7.4
T1 construct: R3 (^306VQIVYK PVDLSK VTSKCG SLGNIH HKPGGG Q^336) and rabbit anti-tau antibody were purchased from MuJin; purchased MuJin
Procedure: However, the influence of 4ME or GA on Cu^2+-promoted R3 aggregation was small, because these compounds could only suppress Cu^2+ promotion effect; their effect on R3 self-aggregation was almost negligible.
(§1) For detecting the inhibitory efficiency of inhibitors, 15 μM R3, 3.8 μM heparin, and 4GA/2GA/4ME/GA (0, 10, and 40 μM) in 50 mM Tris–HCl buffer (pH 7.4) was incubated at 37 °C for 3 h, respectively. For exploring the effect of Cu^2+ on R3 aggregation, 15 μM R3, 3.8 μM heparin was mixed in the presence or the absence of 3.8 μM Cu^2+ in 50 mM Hepes buffer (pH 7.4). Then, 10 μM 4GA/2GA/4ME/GA was added to the solution. After 3 h incubation, 10 μl of each solution was applied on a carbon support membrane, followed by 10 μl of 2% uranyl acetate, and dried at room temperature. The operation was carried out on transmission electron microscope (JEM-2100, provieded by JEOL).

R3 fibrils [2] = target: T1, R3 fibrils; experiment: TEM of heparin-induced R3 fibrils
Procedure: To further confirm the inhibitory efficiency of 4GA and 2GA on R3 fibril formation, the morphology of heparin-induced R3 aggregates at different conditions was characterized by transmission electron microscopy (TEM) (Fig. 4C). After incubation, the mature fibrils of R3 were interweaved and serried in the absence of 4GA or 2GA (0 μM).
as §1

tau peptide R3 = target: T2, tau peptide R3 (Homo sapiens, UniProt P10636); experiment: ThS assay, heparin-induced R3 aggregation (kinetics and dose-response); settings: for IC50: 3 h at 37 °C, ThS fluorescence; for inhibition of R3 assembly (ThS kinetics): 5, 10 and 40 μM, 15 μM R3, heparin
T2 construct: R3 (^306VQIVYK PVDLSK VTSKCG SLGNIH HKPGGG Q^336) and rabbit anti-tau antibody were purchased from MuJin; purchased MuJin
Procedure: The inhibition effect of 4GA–2GA on R3 aggregation was explored by thioflavin S (ThS) assay ([24]). In general, the kinetics of R3 aggregation in the absence or the presence of 4GA, 2GA was assessed by measuring the emission intensity of ThS at 500 nm, which reflects the amount of R3 aggregates. As the control experiments, the aggregation kinetics of 4ME and GA were also carried out. While induced by heparin, R3 aggregates rapidly at 37 °C, and the fluorescence of ThS reaches a maximum after an average time of 200 s (Fig. 4A). Based on the aforementioned conditions, the inhibitory ability of our synthetic compounds at three different concentrations (5, 10, and 40 μM) was tested.
Next, the dose–response inhibitory effects of our synthetic compounds on R3 aggregation were investigated. The detailed experimental operation was descripted in ESI. […] The apparent values of IC50 were calculated according to the dose−response curve.
Tau peptide R3 was adjusted to a concentration of 15 μM using 50 mM Tris−HCl buffer (pH 7.4), ThS (final concentration of 10 μM), and different amounts of 4GA, 2GA, 4ME, and GA (final concentration of 0, 5, 10, and 40 μM) as the aggregation inhibitor were added in1to the reaction mixture. Aggregation was induced by adding heparin to the solution (final concentration of 3.8 μM); the kinetics of each sample was immediately monitored by a fluorescence spectrophotometer with a 10-mm quartz cell at 440/500 nm (excitation/emission). A circulating water bath was necessary to maintain the temperature at 37 °C.
Tau peptide R3 was adjusted to a concentration of 15 μM using 50 mM Tris–HCl buffer (pH 7.4). Different amounts of 4GA, 2GA, 4ME, and GA (final concentration of 0, 1, 2, 4, 6, 10, 15, 20, 30, 40, 60, or 80 μM) as the aggregation inhibitors were added into the reaction mixture. Aggregation was induced by adding heparin to the solution (final concentration of 3.8 μM), After 3 h incubation at 37°C, ThS (final concentration of 10 μM) was added, and the fluorescence intensity at 440/500 nm (excitation/emission) was recorded on Hitachi F-7000 with a 10-mm quartz cell. The dose−response inhibitory effects of R3 aggregation were expressed by the aggregation percentage, which was calculated according to the following (Formula 4.3):(4.3) aggregation%=F-F0/Ft-F0×100
where F0 = fluorescence intensity of R3 monomer, Ft = fluorescence intensity of R3 aggregate, and F = fluorescence intensity of R3 aggregate in the presence of inhibitors. The IC50 values were also calculated according to the dose−response inhibitory effects.
Tau peptide R3 was adjusted to a concentration of 15 μM using Tris−HCl buffer (pH 7.4), and the synthetic compounds (4GA, 2GA, together with 4ME, GA as the comparison) at different concentrations, as aggregation inhibitor, were added into the reaction mixture separately. Aggregation was induced by heparin, and incubated at 37 °C for 3 h. By introducing fluorescence probe ThS, the dose−response inhibitory effects on R3 aggregation were recorded, according to normalized ThS fluorescence intensity (excitation: 440 nm, emission: 500 nm).
Figure S14. Inhibitory effects of N-substituted Azacrown on heparin-induced R3 aggregation, exermined by ThS fluorescence: 15 μM R3 and 3.8 μM heparin with cyclen, 1ME, 2ME, 3ME, and 4ME (80 μM) was incubated respectively at 37°C for 3h. 10 μM ThS was added to each of the solution, Spectra of ThS fluorescence were recorded at Ex440 nm.

T2 sequence (P10636 623-653 limits assumed): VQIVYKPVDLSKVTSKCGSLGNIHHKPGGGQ
T1 sequence (P10636 623-653 limits assumed): as above

Row | Compound | morphology of Cu2+-promoted R3 fibrils (TEM) (R3 fibrils [1]) | R3 fibril morphology (TEM) (R3 fibrils [2]; 10 μM inhibitor) | IC50 (tau peptide R3; 15 μM R3, 3.8 μM heparin) | inhibition of R3 assembly (ThS kinetics) (tau peptide R3; 37 °C) | effect on heparin-induced R3 aggregation (ThS fluorescence at 500 nm) (tau peptide R3; 80 μM compound, 15 μM R3, 3.8 μM heparin, 37 °C, 3 h) | R3 fibril morphology (TEM) (R3 fibrils [2]; even at high concentrations)
1 | CN1CCN(C(=O)c2cc(O)c(O)c(O)c2)CCN(C)CCN(C(=O)c2cc(O)c(O)c(O)c2)CC1 [2GA, (4,10-dimethyl-1,4,7,10-tetraazacyclododecane-1,7-diyl)bis((3,4,5-trihydroxyphenyl)methanone)] | the resulting filaments become sparse and small | smaller numbers of short R3 filaments | 5.5 µM | strongly inhibited R3 assembly | – | –
2 | O=C(c1cc(O)c(O)c(O)c1)N1CCN(C(=O)c2cc(O)c(O)c(O)c2)CCN(C(=O)c2cc(O)c(O)c(O)c2)CCN(C(=O)c2cc(O)c(O)c(O)c2)CC1 [4GA, (1,4,7,10-tetraazacyclododecane-1,4,7,10-tetrayl)tetrakis((3,4,5-trihydroxyphenyl)methanone)] | the resulting filaments become sparse and small | smaller numbers of short R3 filaments | 3.8 µM | strongly inhibited R3 assembly | – | –
3 | CN1CCN(C)CCN(C)CCN(C)CC1 [4ME, 1,4,7,10-tetramethyl-1,4,7,10-tetraazacyclododecane, reference compound] | small | – | – | – | did not hinder the aggregation of R3 peptides | –
4 | O=C(O)c1cc(O)c(O)c(O)c1 [GA, gallic acid, reference compound] | small | – | > 80 µM | – | – | could hardly change the number and length of R3 fibrils
